Experimental data taken from patent publication US12029728B2, “Small molecules with anti-protozoan activity” (New Mexico Tech University Research Park Corporation, priority 2018, dated 2024).
In brackets after ≈: the same amount, converted by molar mass.

Key:
[1] = test system: L. major-infected PBMC cells; test: L. major-infected PBMC cells, Hoechst micrographs; format: cell-based, Leishmania major; settings: 40 μM
Procedure: Human peripheral blood mononuclear cells (PBMC) were plated onto polylysine-coated glass slides in 24-well plates and allowed to differentiate towards monocyte-derived macrophages (MDMs). Non-adherent cells were removed 48-hours post plating. Adherent monocytes were left to further differentiate for another 48 hours to MDMs. Following the completion of the differentiation period, MDMs were treated with vehicle control (DMSO), […], […], Compound 4, Compound 6, Compound 7, Compound 8, Compound 9, Compound 10, […]

[2] = test system: L. major promastigotes; test: L. major promastigote viability, propidium iodide flow cytometry; format: cell-based, Leishmania major; settings: 50 μM, 48 hours at 24° C.
Procedure: 5×10^5 L. major promastigotes were treated with vehicle control (DMSO), […], 5 μM Compound 5, 50 μM Compound 2, 50 μM Compound 5, or […] for 48 hours at 24° C. Promastigote viability was then assessed via a propidium iodide flow cytometry assay. Propidium iodide is only taken up by dead cells, and the presence of fluorescence in a promastigote sample reflects compound efficacy.

[3] = test system: Jurkat cells; test: MTT cell survival assay, Jurkat; format: cell-based; settings: Homo sapiens, 48 hours at 37° C., read-out: IC50 (GI50), cell survival
Procedure: (§1) The GI50 (IC50), the concentration at which 50% cell survival is seen upon treatment with a compound, was determined for Compound 2 in Jurkat, U87, HeLa, and ARPE cells. Cells were cultured in 96-well plates and incubated with 50 μM, 25 μM, 12.5 μM, 6 μM, 3 μM, 1.5 μM, or 0 μM of Compound 2 for 48 hours at 37° C. Following the incubation period, a 3-(4,5-dimethylthiazol-2-yl)-2,5-diphenyl tetrazolium bromide (MTT) assay was performed. In brief, a 10% volume of MTT was added to each well. Cells were incubated with MTT for 2 hours, at which time cell supernatant was removed and cells were taken into 100 μL DMSO. The absorbance of cell solutions was then read at 595 nm. A decrease in absorbance indicated a decrease in cell survival.

[4] = test system: T. cruzi-infected THP-1 cells; test: T. cruzi-infected THP-1 derived macrophages, confocal microscopy; format: cell-based, Trypanosoma cruzi; settings: 2 μM, 7 days
Procedure: Macrophages derived by differentiation of THP-1 cells with phorbol myristate acetate were plated in confocal dishes (about 5,000 cells per dish) and incubated overnight at 37° C. Dishes were incubated with T. cruzi amastigotes and trypomastigotes expressing tdTomato (˜2×10^5 cells) for 24 hours at 37° C. Uninfected plates served as controls. After the 24-hour T. cruzi incubation period, parasites were removed, and medium was re-plated with DMEM/F12 culture media with 2 μM Compound 2 (or left untreated as a control) for 7 days at 37° C. Following fixation of cells in 4% paraformaldehyde, tdTomato fluorescence (which is indicative of viable T. cruzi) in cells was then assessed via confocal microscopy.

[5] = test system: HeLa cells; test: MTT cell survival assay, HeLa; format: cell-based; settings: Homo sapiens, 48 hours at 37° C., read-out: IC50 (GI50), cell survival
Procedure: as §1

[6] = test system: ARPE cells; test: MTT cell survival assay, ARPE; format: cell-based; settings: Homo sapiens, 48 hours at 37° C., read-out: IC50 (GI50), cell survival
Procedure: as §1

[7] = test system: T. gondii-infected ARPE cells; test: Treatment of T. gondii-infected ARPE cells, imaging; format: cell-based, Toxoplasma gondii; settings: for T. gondii in ARPE cells: 4 days
Procedure: ARPE cells were cultured at confluency in a 24 well plate. Cells were incubated with T. gondii (ATCC PRA-310) for 1 hour at 37° C. to allow for T. gondii internalization. After the 1-hour T. gondii incubation period, extracellular T. gondii was removed from culture and cells were washed 3 times with cell media. […] Cells were visualized using an EVOS cell imaging system. The effect of a 3-day Compound 2 treatment on T. gondii-infected ARPE cells was also investigated. 2×10^4 ARPE cells were infected with ˜1×10^6 T. gondii parasites as described in the above paragraph. Cells were then incubated with 5 μM Compound 2 for 3 days at 37° C. Following incubation with Compound 2, cells were washed 3 times in cell media, fixed with 4% paraformaldehyde, stained with DAPI, and visualized with confocal microscopy.

[8] = test system: U87 cells; test: MTT cell survival assay, U87; format: cell-based; settings: Homo sapiens, U-87 MG, 48 hours at 37° C., read-out: IC50 (GI50), cell survival
Procedure: as §1

[9] = test system: T. cruzi epimastigotes; test: MIC against T. cruzi epimastigotes, ATP assay; format: cell-based; settings: Trypanosoma cruzi, 48 hours at 30° C.
Procedure: A 1:20 working dilution of T. cruzi epimastigotes was prepared in LIT1029 medium from a saturated (˜4×10^6 cells/mL) culture. 100 μL of the 1:20 working dilution was plated, and the epimastigotes were incubated with 50 μM, 25 μM, 12.5 μM, 6.25 μM, 3.13 μM, 1.5 μM, or 0 μM Compound 2 for 48 hours at 30° C. After incubation with Compound 2, T. cruzi viability was assessed via an ATP assay. […] An increase in relative light units (RLU) indicates the presence of ATP and viable cells. Phenylarsine oxide (PAO) was used as a control.

[10] = test system: T. cruzi epimastigotes; test: T. cruzi epimastigote toxicity, visually assessed; format: cell-based, Trypanosoma cruzi; settings: 48 hours at 30° C.
Procedure: A 1:20 working dilution of T. cruzi epimastigotes was prepared in LIT1029 medium from a saturated (˜4×10^6 cells/mL) culture. 100 μL of the 1:20 working dilution was plated, and the epimastigotes were incubated with a compound of the disclosure at varying concentrations for 48 hours at 30° C. Following T. cruzi epimastigote treatment with a compound of the disclosure, the toxicity of compounds towards T. cruzi epimastigotes was visually assessed.

**Q.** For `O=C(NO)C(c1ccccc1)c1c(-c2ccc3ccccc3c2)[nH]c2ccccc12` (stereo not shown) [Compound 2, N-hydroxy-2-(2-(naphthalen-2-yl)-1H-indol-3-yl)-2-phenylacetamide], which “number of parasites/PBMC cell” value [1] is on record?
**A.** decreases the number of parasites/PBMC cell

**Q.** What about the “efficacy on L. major promastigote survival” value [2] of the same compound?
**A.** higher efficacy than MTF or the vehicle control

**Q.** And the IC50 [3]?
**A.** 7.97 ± 1.06 µM

**Q.** And the “intracellular proliferation of T. cruzi” value [4]?
**A.** prevented intracellular proliferation of T. cruzi

**Q.** And the IC50 [5]?
**A.** 13.7 ± 0.75 µM

**Q.** What about the IC50 [6] of the same compound?
**A.** 14.8 ± 1.13 µM

**Q.** What about the “T. gondii in ARPE cells” value ([7]; 2 μM) of the same compound?
**A.** clearance of T. gondii from ARPE cells

**Q.** What about the “T. gondii infection of ARPE cells” value ([7]; 5 μM, 3 days) of the same compound?
**A.** cleared ARPE cells of T. gondii infection

**Q.** What about the “T. gondii in ARPE cells” value ([7]; 5 μM) of the same compound?
**A.** clearance of T. gondii from ARPE cells

**Q.** What about the “T. gondii infection of ARPE cells” value ([7]; 5 μM, 5 days) of the same compound?
**A.** cleared ARPE cells of T. gondii infection

**Q.** And the IC50 [8]?
**A.** 11.5 ± 0.41 µM

**Q.** What about the MIC [9] of the same compound?
**A.** ~6 µM (≈ 2.35 µg/mL)

**Q.** And the “Concentration at which T. cruzi epimastigote death is greater than or equal to ~99%” value [10]?
**A.** 6 µM
